# Read-outs that look alike come from different tables or passages of the source.
# Columns and labels:
# PC3 (prostate) = test: Monolayer assay (DNA content by propidium iodide), single agents and indibulin combinations, PC3; format: cell-based, human; conditions: for Combination IC50: PC3, concentration of the named drug in the combination
# Procedure: (§1) The monolayer assay determines the in vitro antitumor activity of test compounds and their capacity to inhibit survival and proliferation of established tumor cell lines. These effects can be determined by establishing the number of viable cells based on measuring the DNA content using propidium iodide. […] Between 5,000 and 10,000 cells were seeded in 96 well plates on Day 0 and the compounds were added 1 day later and incubated for 4 days. The activity was assessed by their IC50 and IC70 values.
# (§2) Growth IC50 and IC70 values (Table 2) were determined using XLfit software package, and used to set the concentration ranges and drug ratios for the synergy detection part of the study.
# (§3) Chou-Talalay median effect method was used to quantitatively characterize drug-drug interaction [Chou T. C. Theoretical basis, experimental design, and computerized simulation of synergism and antagonism in drug combination studies. Pharmacol Rev. 2006 September; 58(3):621-81]. […] Mixtures of the drugs at multiples of their single agent IC50's were prepared, as well as serial dilutions of the mixture. Additionally, single agent dose response was determined for the same concentration ranges as used for combination study.
# (§4) The coefficient of interaction (CI(IC50)) at IC50 and coefficient of interaction under optimal experimental concentrations (CI(e)) were determined using CalcuSyn software package (Table 3, tests were performed in quadruplicate, mean values reported). Commonly, experimental values of CI<0.8 are considered synergistic, 0.8<CI<1.2 additive.
# [1] = system: series of cancer models (RENCA, DMBA, SK-OV-3, PC-3, A431, U 87, MCF-7, A 549); test: Series of cancer models in animals (overall statement); format: in vivo
# Source text: (§5) The significant differences in pharmacodynamics and safety profile of indibulin make it a strong candidate for development as an anti-cancer drug.
# SKOV3 (ovarian) = test: Monolayer assay (DNA content by propidium iodide), single agents and indibulin combinations, SKOV3; format: cell-based, human; conditions: Homo sapiens
# Procedure: as §1, §2, §3, §4
# papillary thyroid cancer = test: Phase I study, patient with papillary thyroid cancer; format: in vivo, human; conditions: 400 mg BID continuous treatment
# Source text: Treatment is ongoing. […] Treatment is ongoing.
# [2] = system: human ovarian xenograft (SK-OV-3); test: SK-OV-3 ovarian xenograft; format: in vivo; conditions: SKOV-3; 100 mg/kg/d, d. 0, 7, 14; at sacrifice of control group animals
# Source text: as §5
# A549 NSCLC = test: Monolayer assay (DNA content by propidium iodide), single agents and indibulin combinations, A549; format: cell-based, human; conditions: for IC50: Homo sapiens
# Procedure: as §1, §2, §3, §4
# [3] = system: U87 glioblastoma xenografts; test: U87 glioblastoma xenograft in nu/nu mice; format: in vivo, Human
# Source text: 5×10^6 U87 glioblastoma cells were implanted subcutaneously in immunodeficient nu/nu mice. Treatment started when tumor weight was about 0.15 g (Day 0).
# as §5
# [4] = system: adult bovine brain tubulin; test: Tubulin polymerization, adult bovine brain tubulin; format: biochemical; conditions: bovine brain tubulin; at the highest dose tested
# Source text: (§6) Tubulin from neuronal tissue is post-translationally modified and the degree of modification increases during neuronal development. Calf brain neuronal tubulin and tubulin from other tissues differ in their post-translational modifications from that of adult bovine brain. […] Tubulin polymerization is given as % over DMSO control.
# [5] = system: DMBA induced mammary carcinoma; test: DMBA induced mammary carcinoma in rats; format: in vivo, Rat; conditions: 46.4 mg/kg/d, 2×(3× week), at sacrifice of control group animals
# Source text: as §5
# [6] = system: biotin-labeled calf brain tubulin; test: Competition with 3H-colchicine for tubulin binding (SPA beads); parameters: species or system bovine; conditions: 200-fold molar excess of cold competitor; FIG. 8
# Procedure: Where indicated, a 200-fold molar excess of cold competitor was added. Tubulin heterodimers were then precipitated with streptavidin-coated SPA beads and bound radioactivity was determined. “No tubulin” indicates non-specifically bound radioactivity measured in the absence of biotin-labeled tubulin.
# [7] = system: un-biotinylated calf brain tubulin; conditions: G. Bacher, Cancer Res. 61, 2001; cited from earlier work
# [8] = system: human vulvar squamous cell carcinoma xenograft (A431); test: A431 vulvar squamous cell carcinoma xenograft; format: in vivo; conditions: 27.5 mg/kg/d, 3×(3× week), at sacrifice of control group animals
# Source text: as §5
# [9] = system: murine renal cell carcinoma RENCA; test: Murine renal cell carcinoma RENCA model; format: in vivo, Mouse
# Procedure: 1.5×10^6 RENCA cells were injected into the subcapsular space of the kidney through a flank incision (Day 1). […] On Day 21 mice were sacrificed and weight and volume of primary tumors, weight and number of metastases of the lung and metastasis formation in the abdominal lymph nodes determined. […] TNP-470 has shown anti-tumor activity in different animal models and is well established for its use in RENCA.
# as §5
# [10] = system: human prostate cancer xenograft (PC-3); test: PC-3 prostate cancer xenograft; format: in vivo; conditions: 180 mg/kg/d, d. 0, 7, 14, at sacrifice of control group animals
# Source text: as §5
# [11] = system: purified calf brain tubulin; test: Tubulin polymerization, calf brain tubulin; format: biochemical, bovine; conditions: FIG. 9, read-out: IC50 of inhibition of tubulin polymerization
# Source text: as §6
# [12] = system: axonal microtubules of rat pheochromocytoma (PC12) cells; test: Axonal microtubule immunostaining in NGF-differentiated PC12 cells; format: cell-based; conditions: PC12 neurites induced by NGF 5-6 days; 24 h treatment at 2×IC50 concentration
# Source text: The outgrowth of neurites of PCl2 was induced by NGF for 5-6 days. […] Microtubules within the neurites, were visualized by immunostaining with an antibody recognizing acetylated (axonal) tubulin, leaving the cell bodies unstained.
# [13] = system: MCF7 breast cancer xenografts; test: MCF7 breast cancer xenograft; format: in vivo, Human; conditions: 38.3 mg/kg/d, 4×(3× week), at sacrifice of control group animals
# Source text: as §5
# [14] = A549, single agent (combination study)
compound,measurement,setting,value
"O=C(Nc1ccncc1)C(=O)c1cn(Cc2ccc(Cl)cc2)c2ccccc12 [Indibulin, N-(pyridin-4-yl)-[1-(4-chlorobenzyl)-indol-3-yl]-glyoxylic acid amide]",IC50,"PC3 (prostate); Homo sapiens, PC3, single agent (combination study), read-out: Single Agent IC50",0.034 µg/mL
same,Combination IC50,PC3 (prostate); indibulin + estramustine,0.014 µg/mL
same,Combination IC50,PC3 (prostate); indibulin + prednisolone,0.012 µg/mL
same,Anti-tumor activity in all models,[1]; all models tested,strong and statistically significant anti-tumor activity
same,Neurotoxicity or loss of body weight,[1]; animals at efficacious doses,no signs of neurotoxicity or loss of body weight
same,IC50,"SKOV3 (ovarian); SK-OV-3, SKOV3, single agent (combination study), read-out: Single Agent IC50",0.415 µg/mL
same,IC50,"SKOV3 (ovarian); SK-OV-3, SKOV3, indibulin + carboplatin, concentration of the named drug in the combination, read-out: Combination IC50",0.029 µg/mL
same,IC50,"SKOV3 (ovarian); SK-OV-3, SKOV3, indibulin + cisplatin, concentration of the named drug in the combination, read-out: Combination IC50",0.022 µg/mL
same,IC50,"SKOV3 (ovarian); SK-OV-3, SKOV3, indibulin + gemcitabine, concentration of the named drug in the combination, read-out: Combination IC50",0.047 µg/mL
same,Decrease of thyroglobulin level from baseline,papillary thyroid cancer; after 15th day of dosing,34%
same,Decrease of tumor measurements,papillary thyroid cancer; at first assessment,11%
same,Disease status after treatment,papillary thyroid cancer; person,stable disease
same,Growth Inhibition (%),[2],53%
same,Single Agent IC40,A549 NSCLC; [14],0.071 µg/mL
same,Single Agent IC50,A549 NSCLC; [14],0.054 µg/mL
same,Single Agent IC60,A549 NSCLC; [14],0.129 µg/mL
same,Single Agent IC70,A549 NSCLC; [14],0.095 µg/mL
same,Combination IC70,"A549 NSCLC; A549, indibulin + carboplatin (carboplatin:indibulin 303:1), concentration of the named drug in the combination",0.027 µg/mL
same,Combination IC40,"A549 NSCLC; A549, indibulin + erlotinib (erlotinib:indibulin 208:1), concentration of the named drug in the combination",0.021 µg/mL
same,Combination IC60,"A549 NSCLC; A549, indibulin + etoposide, concentration of the named drug in the combination",0.068 µg/mL
same,IC50,"A549 NSCLC; A549, 96 h, A549, single agent, 4 days incubation, read-out: Growth IC50",0.038 µg/mL
same,IC50,"A549 NSCLC; A549, A549, single agent (combination study), read-out: Single Agent IC50",0.092 µg/mL
same,IC50,"A549 NSCLC; A549, A549, indibulin + carboplatin (carboplatin:indibulin 303:1), concentration of the named drug in the combination, read-out: Combination IC50",0.011 µg/mL
same,IC50,"A549 NSCLC; A549, A549, indibulin + erlotinib (erlotinib:indibulin 208:1), concentration of the named drug in the combination, read-out: Combination IC50",0.03 µg/mL
same,Growth Inhibition (%),"[3]; U87, 27.5 mg/kg/d, 3×(3× week), at sacrifice of control group animals",88.8%
same,Growth of U87 glioblastoma xenografts (in words),"[3]; orally administered, s.c. tumors in nu/nu mice, FIG. 11",inhibits growth
same,Inhibition of tubulin polymerization,[4],25%
same,Growth Inhibition (%),[5],99.5%
same,Inhibition of 3H-colchicine binding,[6],about 40%
same,Competition with 3H-colchicine binding,[7],does not compete
same,Growth Inhibition (%),[8],63%
same,Growth Inhibition (%),"[9]; RENCA, 17.5 mg/kg/d, d. 1-20(5× week), at sacrifice of control group animals",90%
same,Number of lung metastases,"[9]; oral, daily Day 1-20 (5×/week), Day 21",trend in reduction of number of lung metastases but was not statistically significant
same,Reduction in tumor volume and weight,"[9]; oral, daily Day 1-20 (5×/week), primary tumors on Day 21, FIG. 12",statistically significant
same,Growth Inhibition (%),[10],63%
same,IC50,[11],~250 nM
same,Effect on axonal microtubules (acetylated tubulin immunostaining),[12],did not affect axonal microtubules
same,Growth Inhibition (%),[13],>100%
